This note sets out measurements from patent publication US20250195508A1, “COMPOUNDS AND COMPOSITIONS FOR ANITMALARIAL THERAPEUTIC AND PROPHYLACTIC USE” (UNIVERSITY OF CENTRAL FLORIDA RESEARCH FOUNDATION, INC., priority 2022, published 2025).

Data set [1] relates to P. berghei ANKA. The data set is described as follows: Treatment of established P. berghei ANKA luciferase infection in mice, IVIS imaging. Type of data set: in vivo. As to conditions: 50 mg/kg p.o. once daily for 4 days from 72 hours post-infection; imaging day 7. As to the method:
Mice infected with P. berghei ANKA (10^3 iRBC) expressing luciferase were treated with 50 mg/kg TL5-135 or chloroquine orally once daily 72 hours post-infection for 4 days. Imaging was done 7 days after infection following a 150 mg/kg D-luciferin injection with an IVIS.

The subject of data set [2] is HepG2 human liver cell. The data set is described as follows: CellTiter 96 AQueous MTS cytotoxicity counter-screen (selectivity index). Type of data set: cell-based. The procedure:
(§1) To establish the utility of kinase inhibitor compounds synthesized in the Gray laboratory as a source of novel antimalarial activities, the libraries (containing 1,100 compounds) were screened using the well-established SYBR Green I-based fluorescence assay as known in the art. This screen yielded 34 compounds with EC50<500 nM in the CQ^R Dd2 strain. These hits were subjected to counter-screening against human HepG2 cells using CellTiter 96® AQueous (Promega™) MTS-based cell proliferation assay to identify asexual and liver stage antiplasmodial hits.
(§2) P. falciparum Dd2 EC50 was determined using SYBR Green I assay. For the selectivity index ([…]) cytotoxicity was determined using CellTiter 96® AQueous MTS. The liver stage assay was performed using P. berghei luciferase expressing parasites. All assays were performed with technical quadruplicates and 3 biological replicates. Assays have a Z′ factor >0.7.
For orientation: Counterscreens check selectivity or assay interference.

The subject of data set [3] is Pb-Luc sporozoites. Nature of the data set: Therapeutic assay, 4-day Peters test against Pb-Luc sporozoites. To be noted: therapeutic, 4 doses of 15 mg/kg. Type of data set: in vivo, mice. As to the method:
(§3) TL5-135 was dissolved or resuspended in a suspending vehicle consisting of 30% DMSO, 1% methylcellulose, 0.5% TWEEN-80, and 68.5% ultrapure water. GNF179 was resuspended in 30% DMSO, 30% PEG400, 5% TWEEN-80, 35% saline, and administered intravenously.
(§4) For prophylaxis assays, a single dose of […] was administrated 6 hours before infection. For therapeutic assays, in a 4-day's Peters test, 4 doses (each 15 mg/kg) were administrated 6, 18, 30, and 42 hours post infection.
(§5) The antimalarial activity was measured as a percent reduction in parasitemia from day one until day twelve post-infection.
However, the mice treated with TL5-135 as a therapeutic had about 2.4% parasitemia after 12 days post-infection (all negative control mice died between days 11-13). The parasitemia on day 21 (21 days post-infection) for the group of mice was 35%.
(§6) Groups of 5 mice were infected with 100,000 Pb-Luc sporozoites by IV injection. Prophylactic (single dose of 50 mg/kg through IV injection, 6 hour before infection) and therapeutic (4-day Peters test, 4 doses of 15 mg/kg each time were administrated post-infection at 6, 18, 30, and 42 hours post infection (hpi) and the activity of the compounds was evaluated. See FIG. 8A. The parasitemia was estimated after flow cytometric enumeration of rodent malaria parasite Pb-Luc-infected red blood cells (RBS) stained with SYBR Green I, from day 3 until 20.
(§7) TL5-135 and GNF179 antimalarial compounds were tested against Pb-Luc sporozoites. Prophylactic activity (single dose of 15 mg/kg through an IV injection, 6 hours before infection) and therapeutic activity (4-day Peters test, 4 doses of 15 mg/kg each time was administrated at 6, 18, 30, and 42 hpi of the TL5-135 antimalarial compound was evaluated. As before, groups of five mice were infected with 100,000 Pb-Luc sporozoites by IV injection. The parasitemia was estimated after flow cytometric enumeration of rodent malaria parasite Pb-Luc-infected red blood cells (RBS) stained with SYBR Green I, from day 3 until day 20. See FIG. 8B.

For data set [4], the system named is P. falciparum Dd2. The data set is described as follows: 72 h SYBR Green I assay (Dd2 Proliferation Assay). Type of data set: cell-based. As to conditions: Plasmodium falciparum, DD2; SYBR Green I assay; Table 4; read-out: PfDd2 EC50 (nM) ± SD. As to the method: Several analogs were synthesized based on the structure of TL5-135 for further study. […] For the data in Table 1, compounds were subjected to in vitro biochemical kinase assays done using recombinant human ephrin type-A receptor 2 (EPHA2) (expressed in insect cells) in a Z′-LYTE® FRET-based kinase assay. P. falciparum Dd2 EC50 was determined using the standard 72 hour SYBR Green I assay (Dd2 Proliferation Assay) as known in the art. […] The structures of compoundsTL5-134, TL5-139, and TL5-145 are shown below.
In vitro biochemical kinase assays were done using recombinant human EPHA2 (expressed in insect cells) in a Z′-LYTE® FRET-based kinase assay. P. falciparum Dd2 EC50 was determined using the standard 72 h SYBR Green I assay.
Asynchronous blood stage P. falciparum Dd2 cultures were plated at 1% parasitemia and 1% hematocrit in a 96-well plate and incubated with serial dilutions of compound for 72 hours at 37° C. in 5% CO2. DMSO concentrations were kept at a sub-lethal percentage (<0.2%). Five micromolar chloroquine was used as a negative parasite growth control. Plates were then frozen at −80° C. and thawed, and 100 μL SYBR Green I-containing lysis buffer (20 mM Tris-HCl, 5 mM EDTA, 0.8% Triton X-100, 0.08% saponin, and 0.0001% SYBR Green I) was added to the wells. After incubation for 45 minutes at room temperature protected from light, fluorescence emission was read with a multimode microplate reader, at 485 nm excitation and 530 nm emission. Results were normalized using untreated and chloroquine-treated controls, and EC50 was determined with CDD Vault.
as §1, §2

Data set [5] is described as follows: in vitro. Type of data set: in vitro ADME. As to conditions: mouse liver microsomes; read-out: t1/2 in mouse liver microsomes.
Data set [6] has as its system P. berghei luciferase expressing parasites. The data set is described as follows: Liver stage assay with luciferase expressing parasites. Type of data set: cell-based. As to conditions: Plasmodium berghei, read-out: Liver Stage EC50 (nM) ± SD. The procedure: as §2
The test system of data set [7] is P. berghei luc sporozoites (Pb-Luc). Nature of the data set: Prophylaxis assay, single IV dose 6 hours before Pb-Luc sporozoite infection. Type of data set: in vivo, mice. The procedure: as §3, §4, §5
Infection was initiated using 100,000 P. berghei luc sporozoites (Pb-Luc). The drugs were administered IV at 50 mg/kg, single dose 6 hours prior. I: infected, UI: uninfected.
as §6, §7

One may read the EC50 as the concentration that produces a half-maximal response.

“Also recorded” adds a separate entry of the source.

On to `CCN1CCN(Cc2ccc(NC(=O)c3cc(Cl)cc(NC(=O)c4cncc(-c5cccs5)c4)c3)cc2C(F)(F)F)CC1` [TL5-135], for which the “Effect on established P. berghei infection” value in data set [1] is “eliminates established P. berghei ANKA infection; also recorded: eliminate established Plasmodium. berghei infections in mice”. For the same compound, the “Selectivity Index (SI)” value in data set [2] came out at 116. For the same compound, in data set [3] (12 days post-infection), the “Parasitemia 12 days post-infection” value is recorded as “about 2.4%”. The “Parasitemia on day 21” value in data set [3] (21 days post-infection) is 35%. Further, the EC50 amounted to 80 ± 8 nM in data set [4] and 108 ± 35 nM in data set [6]. The half-life in data set [5] was determined as 1.32 h. Moreover, in data set [7] (single dose 15 mg/kg 6 hours before infection, after 22 days), the “Condition of mice after prophylactic treatment” value is “still healthy and alive”. Besides, in data set [7] (single dose 50 mg/kg IV 6 hours prior to infection with 100,000 Pb-Luc sporozoites), the Prophylactic activity entry is listed as “has prophylactic activity; also recorded: prevent infection”.
